Measured values published in patent publication US7510836B2, “Alpha arteether resistance domain” (priority 2003, dated 2009).
In brackets after ≈: the same amount, converted by molar mass.

What was measured:
E. coli mutant CA8001 = experiment: Minimum inhibitory concentration (cross resistance); assay type: cell-based; conditions: Escherichia coli; strain CA8001
From the text: (§1) In order to develop an arteether resistant mutants from an arteether sensitive strains a reverse strategy was applied. Quinoline/fluoroquinolone (Q/FQs) resistant strains were developed spontaneously i.e. screening overnight log phase culture of the Quinolone/fluoroquinolone sensitive i.e. arteether resistant strain (E coli CA 8000) on the poison agar plate of the Q/FQs. The Q/FQ resistant mutants which appeared on the poison agar plates were first purified through single colony purification and then checked for their arteether sensitivity. These arteether sensitive mutants on the contrary when checked for their Q/Fqs resistance they show different level of Q/FQs resistance.
(§2) The minimum inhibitory concentrations (MIC) of the quinolone and fluoroquinolone antibiotics were quantified for different strains and compared among each other. The differential response indicate the measure of resistance and sensitivity. Higher MIC indicate more resistance.

E. coli mutant CA8003 = experiment: as above; assay type: cell-based; conditions: Escherichia coli; strain CA8003
From the text: as §1, §2

E. coli mutant CA8002 = experiment: as above; assay type: cell-based; conditions: Escherichia coli; strain CA8002
From the text: as §1, §2

E. coli mutant CA8007 = experiment: as above; assay type: cell-based; conditions: Escherichia coli; strain CA8007
From the text: as §1, §2

E. coli mutant CA80012 = experiment: as above; assay type: cell-based; conditions: Escherichia coli, read-out: minimum inhibitory concentration (MIC)
From the text: as §1, §2

E. coli mutant CA8006 = experiment: as above; assay type: cell-based; conditions: Escherichia coli; strain CA8006
From the text: as §1, §2

E. coli mutant CA8005 = experiment: as above; assay type: cell-based; conditions: Escherichia coli; strain CA8005
From the text: as §1, §2

E. coli mutant CA8009 = experiment: as above; assay type: cell-based; conditions: Escherichia coli; strain CA8009
From the text: as §1, §2

E. coli mutant CA80010 = experiment: as above; assay type: cell-based; conditions: Escherichia coli, read-out: minimum inhibitory concentration (MIC)
From the text: as §1, §2

E. coli CA8000 = experiment: as above; assay type: cell-based; conditions: Escherichia coli; strain CA8000
From the text: as §2

E. coli DH5a = experiment: as above; assay type: cell-based; conditions: Escherichia coli; strain DH5a
From the text: as §2

E. coli ET8000 [1] = experiment: as above; assay type: cell-based; conditions: Escherichia coli; strain ET8000
From the text: as §2

E. coli NK5819 [2] = experiment: as above; assay type: cell-based; conditions: Escherichia coli; strain NK5819
From the text: as §2

[3] = test system: E. coli mutant strain AR 9 CA8014; experiment: Phenotype of revertant (resistance or sensitivity); assay type: cell-based, Escherichia coli; set-up: key: R: resistance; S: sensitivity; conditions: gyrA AAC-GAC(259), Asn-Asp 87
From the text: (§3) The strains of E coli of the investigation, their phenotypes in terms of a-arteether (resistance or sensitivity, superscript R or S) or antibiotic resistance or sensitivity, change in nucleotide position of the gyrase A gene leading to the phenotype, corresponding amino acid change in the protein and the position of amino acid change are being described. Always the phenotype a-arteether resistance is accompanied with quinolone or fluoroquinolone sensitivity and vice versa.
(§4) The commercially available strain E. coli DH5[…] (Stratagene, USA) is sensitive to […]-arteether but resistant to quinolone/fluoroquinolone due to a mutation at 87th aminoacid position of the gyr A protein (Aspartic acid of wild type is changed to Aspargine) with corresponding change in the codon GAC to AAC. This strain was used to screen […]-arteether resistant mutations. The observation was startling as the […]-arteether resistant mutants are the exact reversion at the 87th position of the aminoacid of gyrase A subunit i.e. Aspargine changed to aspartic acid, with corresponding change in the codon AAC to GAC.

E. coli DH5α = experiment: Phenotype of strain (resistance or sensitivity); assay type: cell-based, Escherichia coli; set-up: key to Phenotype: R: resistance; S: sensitivity
Experimental: As a result of this mutation, the said strain is also resistant to a drug called nalidixic acid.
(§5) To ascertain the involvement of gyrA mutation, another E.coli strain NK 5819 which is also GyrA″ and nalidixic acid resistant was tested for arteether sensitivity. As expected, strain NK5819 was also sensitive only to a-isomer of arteether. […] The assays for arteether sensitivity was performed by the standard single disk diffusion method (Bauer et al, 1966). As a next step, we isolated gyrA mutants of E.coli strain CA 8000, which is otherwise Gyr+ and nalidixic acid sensitive. The gyrA mutants of CA8000 were isolated as nalidixic acid resistant colonies (20 ug/ml), after mutagenic treatment with NTG ([…]). The isolated CA8000 gyrA mutants were also sensitive only to a isomer of arteether. […] To define precisely the involvement of gyr genes only in the a-arteether sensitivity, we utilised two recombinant clones (pMK 90 and pMK47 containing functional gyr A and gyrB genes respectively) in trans-complementation assays. For this purpose, we mobilized the plasmid clones into the E.coli gyr mutant strains. The resulting transformants were now nalidixic acid sensitive and a-arteether resistant. This constituted the direct evidence supporting our observation that DNA gyrase enzyme alone is involved in conferring a-arteether sensitivity to E.coli strain. […] DNA gyrase enzyme is essential for the bacterial growth. This enzyme transiently breaks the DNA strands and introduces negative superhelical turns in an ATP-dependent process. The E.coli DNA gyrase enzyme is a tetramer with two subunits A and B. These two subunits are nalidixic acid and coumermycin sensitive respectively (U.S. Pat. No. 6,127,405 and a co-pending patent).
as §3

[4] = test system: E.coli strain CA 8000 (Gyr+); experiment: Phenotype of strain (resistance or sensitivity); assay type: cell-based, Escherichia coli; conditions: E.coli CA 8000 (Gyr+)
Experimental: as §5, with “This enzyme transiently breaks the DNA strands and introduces negative superhelical turns in an ATP-dependent process. The E.coli DNA gyrase enzyme is a tetramer with two subunits A and B. These two subunits are nalidixic acid and coumermycin sensitive respectively (U.S. Pat. No. 6,127,405 and a co-pending patent).” left out

[5] = test system: E.coli gyr mutant strains transformed with pMK 90 and pMK47 (functional gyr A and gyrB genes); experiment: Trans-complementation assay; assay type: cell-based, Escherichia coli; conditions: gyr mutant strains carrying pMK 90 / pMK47
Experimental: as §5, with “This enzyme transiently breaks the DNA strands and introduces negative superhelical turns in an ATP-dependent process. The E.coli DNA gyrase enzyme is a tetramer with two subunits A and B. These two subunits are nalidixic acid and coumermycin sensitive respectively (U.S. Pat. No. 6,127,405 and a co-pending patent).” left out

E. coli NK5819 [6] = experiment: Phenotype of strain (resistance or sensitivity); assay type: cell-based, Escherichia coli; set-up: key to Phenotype: R: resistance; S: sensitivity
Experimental: as §5, §3

E. coli CA8003 = experiment: Phenotype of strain (resistance or sensitivity); assay type: cell-based, Escherichia coli; set-up: key: R: resistance; S: sensitivity; conditions: gyrA GAC-GGC(260), Asp-Gly 87
From the text: as §1, §3

E. coli CA8001 = experiment: Phenotype of strain (resistance or sensitivity); assay type: cell-based, Escherichia coli; set-up: key: R: resistance; S: sensitivity; conditions: gyrA GGT-TGT(241), Gly-Cys 81
From the text: as §1, §3

E. coli CA8009 = experiment: Phenotype of strain (resistance or sensitivity); assay type: cell-based, Escherichia coli; set-up: key: R: resistance; S: sensitivity; conditions: gyrA TCG-TTG(248), Ser-Leu 83
From the text: as §1, §3

E. coli CA8005 = experiment: Phenotype of strain (resistance or sensitivity); assay type: cell-based, Escherichia coli; set-up: key: R: resistance; S: sensitivity; conditions: gyrA GAC-GGC(260), Asp-Gly 87
From the text: as §1, §3

E. coli CA8002 = experiment: Phenotype of strain (resistance or sensitivity); assay type: cell-based, Escherichia coli; set-up: key: R: resistance; S: sensitivity; conditions: gyrA GGT-TGT(241), Gly-Cys 81
From the text: as §1, §3

E. coli CA8007 = experiment: Phenotype of strain (resistance or sensitivity); assay type: cell-based, Escherichia coli; set-up: key: R: resistance; S: sensitivity; conditions: gyrA TCG-TTG(248), Ser-Leu 83
From the text: as §1, §3

E. coli CA8010 = experiment: Phenotype of strain (resistance or sensitivity); assay type: cell-based, Escherichia coli; set-up: key: R: resistance; S: sensitivity; conditions: gyrA TCG-TTG(248), Ser-Leu 83
From the text: as §1, §3

E. coli CA8006 = experiment: Phenotype of strain (resistance or sensitivity); assay type: cell-based, Escherichia coli; set-up: key: R: resistance; S: sensitivity; conditions: gyrA TCG-TTG(248), Ser-Leu 83
From the text: as §1, §3

E. coli ET8000 [7] = experiment: Phenotype of strain (resistance or sensitivity); assay type: cell-based, Escherichia coli; set-up: key: R: resistance; S: sensitivity; conditions: gyrA GAC-AAC(259), Asp-Asn 87
From the text: as §3

[8] = test system: E. coli mutant strain Rev. 1; experiment: Phenotype of revertant (resistance or sensitivity); assay type: cell-based, Escherichia coli; set-up: key: R: resistance; S: sensitivity; conditions: gyrA GAT-GGT(242), Asp-Gly 81
From the text: as §3, §4

[9] = test system: E. coli mutant strain Rev. 2; experiment: Phenotype of revertant (resistance or sensitivity); assay type: cell-based, Escherichia coli; set-up: key: R: resistance; S: sensitivity; conditions: gyrA GAT-GGT(242), Asp-Gly 81
From the text: as §3, §4

[10] = test system: E. coli mutant strain Rev. 3; experiment: Phenotype of revertant (resistance or sensitivity); assay type: cell-based, Escherichia coli; set-up: key: R: resistance; S: sensitivity; conditions: gyrA GAT-GGT(242), Asp-Gly 81
From the text: as §3, §4

[11] = test system: E. coli mutant strain Rev 4; experiment: Phenotype of revertant (resistance or sensitivity); assay type: cell-based, Escherichia coli; set-up: key: R: resistance; S: sensitivity; conditions: gyrA GAT-GGT(242), Asp-Gly 81
From the text: as §3, §4

[12] = test system: E. coli mutant strain Rev 6; experiment: Phenotype of revertant (resistance or sensitivity); assay type: cell-based, Escherichia coli; set-up: key: R: resistance; S: sensitivity; conditions: gyrA GAT-GGT(242), Asp-Gly 81
From the text: as §3, §4

[13] = test system: E. coli mutant strain Rev 5; experiment: Phenotype of revertant (resistance or sensitivity); assay type: cell-based, Escherichia coli; set-up: key: R: resistance; S: sensitivity; conditions: gyrA GAT-GGT(242), Asp-Gly 81
From the text: as §3, §4

E. coli CA8012 = experiment: Phenotype of strain (resistance or sensitivity); assay type: cell-based, Escherichia coli; set-up: key: R: resistance; S: sensitivity; conditions: gyrA GGT-GAT(242), Gly-Asp 81
From the text: as §1, §3

SMILES | MIC (E. coli mutant CA8001) | MIC (E. coli mutant CA8003) | MIC (E. coli mutant CA8002) | MIC (E. coli mutant CA8007) | MIC (E. coli mutant CA80012) | MIC (E. coli mutant CA8006) | MIC (E. coli mutant CA8005) | MIC (E. coli mutant CA8009) | MIC (E. coli mutant CA80010) | MIC (E. coli CA8000) | MIC (E. coli DH5a) | MIC (E. coli ET8000 [1]) | MIC (E. coli NK5819 [2]) | other results
C[C@@H]1CN(c2c(F)c(N)c3c(=O)c(C(=O)O)cn(C4CC4)c3c2F)C[C@H](C)N1 [Sparfloxacin] | 20 mg/L (≈ 51 µM) | 20 mg/L (≈ 51 µM) | 20 mg/L (≈ 51 µM) | 20 mg/L (≈ 51 µM) | 40 mg/L (≈ 102 µM) | 40 mg/L (≈ 102 µM) | 20 mg/L (≈ 51 µM) | 40 mg/L (≈ 102 µM) | 40 mg/L (≈ 102 µM) | < 0.05 mg/L | 10 mg/L (≈ 25.5 µM) | 20 mg/L (≈ 51 µM) | 10 mg/L (≈ 25.5 µM) | 
CCn1cc(C(=O)O)c(=O)c2ccc(C)nc21 [Nalidixic acid] | 150 mg/L (≈ 646 µM) | 150 mg/L (≈ 646 µM) | 150 mg/L (≈ 646 µM) | 100 mg/L (≈ 431 µM) | 100 mg/L (≈ 431 µM) | 150 mg/L (≈ 646 µM) | 150 mg/L (≈ 646 µM) | 100 mg/L (≈ 431 µM) | 100 mg/L (≈ 431 µM) | 2 mg/L (≈ 8.61 µM) | 50 mg/L (≈ 215 µM) | 100 mg/L (≈ 431 µM) | 20 mg/L (≈ 86.1 µM) | Phenotype [3]: S; Phenotype (E. coli DH5α; DH5α, gyrA GAC-AAC(259), Asp-Asn 87): R; Sensitivity or resistance of the strain (words) (E. coli DH5α; E.coli DH5a (gyrA 96; Asp87Asn)): resistant; Sensitivity or resistance of the strain (words) [4]: sensitive; Sensitivity or resistance of transformants [5]: sensitive; Sensitivity or resistance of the strain (words) (E. coli NK5819 [6]; E.coli NK 5819 (GyrA mutant)): resistant; Phenotype (E. coli NK5819 [6]; NK5819, gyrA GAC-TAC(259), Asp-Gly 87): R; Phenotype (E. coli CA8003): R; Phenotype (E. coli CA8001): R; Phenotype (E. coli CA8009): R; Phenotype (E. coli CA8005): R; Phenotype (E. coli CA8002): R; Phenotype (E. coli CA8007): R; Phenotype (E. coli CA8010): R; Phenotype (E. coli CA8006): R; Phenotype (E. coli ET8000 [7]): R
CCn1cc(C(=O)O)c(=O)c2cc(F)c(N3CCNC(C)C3)c(F)c21 (centres unmarked) [Lomefloxacin] | 1.5 mg/L (≈ 4.27 µM) | 2.5 mg/L (≈ 7.12 µM) | 1.5 mg/L (≈ 4.27 µM) | 1.5 mg/L (≈ 4.27 µM) | 1.5 mg/L (≈ 4.27 µM) | 1.5 mg/L (≈ 4.27 µM) | 0.5 mg/L (≈ 1.42 µM) | 1.5 mg/L (≈ 4.27 µM) | 1.5 mg/L (≈ 4.27 µM) | < 0.05 mg/L | 0.5 mg/L (≈ 1.42 µM) | > 2 mg/L | < 0.5 mg/L | Phenotype [8]: S; Phenotype [9]: S; Phenotype [10]: S; Phenotype [11]: S; Phenotype [12]: S; Phenotype [13]: S; Phenotype (E. coli CA8012): R
